Experimental data as given in ChEMBL document CHEMBL3045052, “Effect of the lipophilic parameter (log P) on the anti-parasitic activity of imidazo[1,2-a]pyridine derivatives” (Med Chem Res, 2012).
Values after ≈ are worked out from the molar mass of the structure shown.

Experiments:
Trichomonas vaginalis [1] = test: Antiparasitic activity against Trichomonas vaginalis GT3 after 24 hr by Alamar blue assay; assay type: functional; settings: GT3, 24 h
[2] = Partition coefficient, log P of compound at 1:2 1-octanol/water volume ratio by spectrophotometer; assay type: physicochemical
[3] = Partition coefficient, log P of compound at 1:1 1-octanol/water volume ratio by spectrophotometer; assay type: physicochemical
Trichomonas vaginalis [4] = test: Antiparasitic activity against Trichomonas vaginalis GT3 after 48 hr by Alamar blue assay; assay type: functional, organism-based; settings: GT3, 48 h
[5] = Partition coefficient, log P of compound at 2:1 1-octanol/water volume ratio by spectrophotometer; assay type: physicochemical

MIC (Trichomonas vaginalis [1]) [µM] | logP [2] | logP [3] | MIC (Trichomonas vaginalis [4]) [µM] | logP [5] | Structure (SMILES) | EC50 (Trichomonas vaginalis [4]) [µM]
19.3 (≈ 4 µg/mL) | -0.042 | -0.041 | 19.3 (≈ 4 µg/mL) | -0.038 | O=C(O)c1nc2ccccn2c1[N+](=O)[O-] | 21.1
9.71 (≈ 2 µg/mL) | -0.569 | -0.515 | 9.71 (≈ 2 µg/mL) | -0.54 | NC(=O)c1nc2ccccn2c1[N+](=O)[O-] | 41.3
4.95 (≈ 1 µg/mL) | 1.12 | 1.19 | 2.48 (≈ 0.501 µg/mL) | 1.08 | Cc1cccc2nc(C#N)c([N+](=O)[O-])n12 | 12.1
5.32 (≈ 1 µg/mL) | 0.641 | 0.691 | 2.66 (≈ 0.5 µg/mL) | 0.692 | N#Cc1nc2ccccn2c1[N+](=O)[O-] | 9.68

Second part, the compound before the results:

Structure (SMILES) | MIC (Trichomonas vaginalis [1]) [µM] | logP [2] | logP [3] | MIC (Trichomonas vaginalis [4]) [µM] | logP [5] | EC50 (Trichomonas vaginalis [4]) [µM]
O=[N+]([O-])c1cnc2ccccn12 | 3.01 (≈ 0.491 µg/mL) | 0.96 | 0.938 | 3.07 (≈ 0.501 µg/mL) | 0.922 | 2.45
Cc1ncc([N+](=O)[O-])n1CCO [METRONIDAZOLE] | 2.92 (≈ 0.5 µg/mL) | 0.11 | 0.12 | 2.92 (≈ 0.5 µg/mL) | 0.115 | 1.2
O=[N+]([O-])c1c(NC2CCCCC2)nc2ccccn12 | 61.5 (≈ 16 µg/mL) | 1.5 | 1.54 | 30.8 (≈ 8.02 µg/mL) | 1.5 | 61.5
Cc1cccc2nc(NC3CCCCC3)c([N+](=O)[O-])n12 | 58.4 (≈ 16 µg/mL) | 1.5 | 1.56 | 29.2 (≈ 8.01 µg/mL) | 1.5 | 64.3
Cc1cccc2nc(C(N)=O)c([N+](=O)[O-])n12 | 9.09 (≈ 2 µg/mL) | 0.69 | 0.67 | 9.09 (≈ 2 µg/mL) | 0.695 | 14.6
CCOC(=O)c1nc2cccc(C)n2c1[N+](=O)[O-] | 4.02 (≈ 1 µg/mL) | 1.2 | 1.27 | 4.02 (≈ 1 µg/mL) | 1.3 | 9.11
CCOC(=O)c1nc2ccccn2c1[N+](=O)[O-] | 2.13 (≈ 0.501 µg/mL) | 1.04 | 0.983 | 2.13 (≈ 0.501 µg/mL) | 0.963 | 3.96
